Read-outs that look alike come from different tables or passages of the source.
Legend:
[1] = biological target: T1, 5-HT7 (h) (Homo sapiens, UniProt P34969); test: Competition assay to measure binding affinity at 5-HT7 receptor; details: test ligand 10 μM; [3H]LSD 4 nM
T1 construct: host or cells: HEK-293 cells

[2] = biological target: T2, D3 (h) (Homo sapiens, UniProt P35462); test: Competition assay to measure binding affinity at D3 receptor; details: test ligand 10 μM; [3H]methylspiperone […]
T2 construct: host or cells: CHO cells

[3] = biological target: T3, 5-HT1A receptor (Homo sapiens, UniProt P08908); test: Functional 5-HT1A receptor cAMP assay in CHO-K1/5-HT1A/Gα15 cells; type: cell-based; details: for 5-HT1A receptor engagement (change in cAMP levels), in words: +5-HT1A cells, 4 μM forskolin, FIGS. 37B-37H
T3 construct: purchased Perkin Elmer 6110501400UA
T3 sequence (P08908 1-422): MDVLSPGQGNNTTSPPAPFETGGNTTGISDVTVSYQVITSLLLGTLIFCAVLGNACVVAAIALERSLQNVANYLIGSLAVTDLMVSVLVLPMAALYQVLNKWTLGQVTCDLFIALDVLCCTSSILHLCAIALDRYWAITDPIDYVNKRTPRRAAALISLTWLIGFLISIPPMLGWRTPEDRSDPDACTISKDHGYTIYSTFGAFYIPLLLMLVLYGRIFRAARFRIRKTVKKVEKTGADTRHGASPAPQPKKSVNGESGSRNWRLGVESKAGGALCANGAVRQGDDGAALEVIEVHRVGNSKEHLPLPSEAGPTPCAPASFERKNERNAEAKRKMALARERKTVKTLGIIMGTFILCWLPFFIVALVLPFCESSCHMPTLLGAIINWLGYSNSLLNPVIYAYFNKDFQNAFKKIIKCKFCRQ

[4] = biological target: T4, human serotonin transporter (SERT) (Homo sapiens, UniProt P31645); test: biochemical; type: binding
T4 construct: purchased PerkinElmer RBHSTM400UA

[5] = biological target: T5, 5-HT2B (h) (Homo sapiens, UniProt P41595); test: Competition assay to measure binding affinity at 5-HT2B receptor; details: test ligand 10 μM; [3H]mesulergine 2 nM
T5 construct: host or cells: CHO cells

[6] = biological target: 5-HT2A receptor (Homo sapiens, UniProt P28223); test: 5-HT2A receptor radioligand competition assay (SPA)
[7] = biological target: T3, 5-HT1A receptor; test: 5-HT1A receptor radioligand competition assay (SPA); type: binding; details: competition with 0.5 nM 8-hydroxy-DPAT [3H]; test compound 3 nM to 1 mM; read-out: 5-HT1A, Ki
[8] = biological target: T6, 5-HT1B (h) (Homo sapiens, UniProt P28222); test: Competition assay to measure binding affinity at 5-HT1B receptor; details: test ligand 10 μM; [3H]GR125743 1 nM
T6 construct: host or cells: Chem-1 (RBL) cells

[9] = biological target: T7, alpha2A (h) (Homo sapiens, UniProt P08913); test: Competition assay to measure binding affinity at alpha2A receptor; details: test ligand 10 μM, [3H]RX 821002 1 nM; for inhibition at 10 µM: read-out: α-2A, percent of control-specific binding
T7 construct: host or cells: CHO cells
T7 sequence (P08913 1-465): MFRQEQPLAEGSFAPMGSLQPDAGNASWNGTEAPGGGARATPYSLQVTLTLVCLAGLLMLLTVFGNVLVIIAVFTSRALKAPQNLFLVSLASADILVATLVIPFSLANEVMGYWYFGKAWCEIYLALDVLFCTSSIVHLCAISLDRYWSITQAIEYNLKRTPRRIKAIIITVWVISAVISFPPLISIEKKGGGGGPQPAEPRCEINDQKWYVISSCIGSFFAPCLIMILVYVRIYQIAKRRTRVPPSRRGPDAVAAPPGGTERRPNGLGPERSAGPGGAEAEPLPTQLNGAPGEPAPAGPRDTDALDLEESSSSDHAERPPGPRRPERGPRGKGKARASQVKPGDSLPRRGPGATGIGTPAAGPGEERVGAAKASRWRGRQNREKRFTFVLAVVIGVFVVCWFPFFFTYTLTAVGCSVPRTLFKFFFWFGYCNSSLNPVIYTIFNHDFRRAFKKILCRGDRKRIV

[10] = biological target: T8, DAT (h) (Homo sapiens, UniProt Q01959); test: Competition assay to measure binding affinity at dopamine transporter (DAT); details: test ligand 10 μM; [3H]BTCP 4 nM
T8 construct: host or cells: CHO cells

[11] = biological target: T9, 5-HT1D (r) (Rattus norvegicus, UniProt P28565); test: Competition assay to measure binding affinity at 5-HT1D receptor; details: test ligand 10 μM; [3H]serotonin 1 nM
T9 construct: host or cells: CHO cells

[12] = biological target: T10, NET (h) (Homo sapiens, UniProt P23975); test: Competition assay to measure binding affinity at norepinephrine transporter (NET); details: test ligand 10 μM; [3H]nisoxetine 1 nM
T10 construct: host or cells: CHO cells

[13] = biological target: T11, MT1 (ML1A) (h) (Homo sapiens, UniProt P48039); test: Competition assay to measure binding affinity at MT1 receptor; details: test ligand 10 μM; [125I]2-iodomelatonin 0.01 nM
T11 construct: host or cells: CHO cells

[14] = biological target: T12, D2 (h) (Homo sapiens, UniProt P14416); test: Competition assay to measure binding affinity at D2L receptor; details: test ligand 10 μM; [3H]methylspiperone 0.3 nM
T12 construct: host or cells: HEK-293 cells

[15] = biological target: T13, 5-HT2C (h) (Homo sapiens, UniProt P28335); test: Competition assay to measure binding affinity at 5-HT2C receptor; details: test ligand 10 μM; [125I](±)DOI 0.1 nM
T13 construct: host or cells: HEK-293 cells
T13 sequence (P28335 33-458): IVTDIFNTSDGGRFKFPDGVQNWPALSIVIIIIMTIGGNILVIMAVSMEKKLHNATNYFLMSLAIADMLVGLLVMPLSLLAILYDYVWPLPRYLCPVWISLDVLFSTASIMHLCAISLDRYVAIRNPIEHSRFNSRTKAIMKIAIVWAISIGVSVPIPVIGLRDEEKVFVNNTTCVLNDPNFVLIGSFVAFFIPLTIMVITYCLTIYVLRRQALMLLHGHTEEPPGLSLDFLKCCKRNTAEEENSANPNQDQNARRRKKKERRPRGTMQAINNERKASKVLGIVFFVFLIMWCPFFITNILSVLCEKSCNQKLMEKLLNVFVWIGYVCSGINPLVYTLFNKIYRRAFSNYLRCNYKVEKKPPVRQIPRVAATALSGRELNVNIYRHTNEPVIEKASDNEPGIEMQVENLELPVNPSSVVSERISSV

T2 sequence (P35462 whole entry): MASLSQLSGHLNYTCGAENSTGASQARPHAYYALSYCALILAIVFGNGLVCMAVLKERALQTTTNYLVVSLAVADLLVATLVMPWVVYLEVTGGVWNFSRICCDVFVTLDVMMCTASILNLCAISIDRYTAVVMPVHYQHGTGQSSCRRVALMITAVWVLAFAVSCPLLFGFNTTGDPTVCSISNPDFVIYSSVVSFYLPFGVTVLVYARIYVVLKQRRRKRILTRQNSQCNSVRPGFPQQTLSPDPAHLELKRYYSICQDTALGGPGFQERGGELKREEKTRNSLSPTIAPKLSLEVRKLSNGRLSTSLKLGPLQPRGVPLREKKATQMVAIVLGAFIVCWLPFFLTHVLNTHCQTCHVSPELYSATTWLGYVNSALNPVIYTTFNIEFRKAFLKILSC
T5 sequence (P41595 whole entry): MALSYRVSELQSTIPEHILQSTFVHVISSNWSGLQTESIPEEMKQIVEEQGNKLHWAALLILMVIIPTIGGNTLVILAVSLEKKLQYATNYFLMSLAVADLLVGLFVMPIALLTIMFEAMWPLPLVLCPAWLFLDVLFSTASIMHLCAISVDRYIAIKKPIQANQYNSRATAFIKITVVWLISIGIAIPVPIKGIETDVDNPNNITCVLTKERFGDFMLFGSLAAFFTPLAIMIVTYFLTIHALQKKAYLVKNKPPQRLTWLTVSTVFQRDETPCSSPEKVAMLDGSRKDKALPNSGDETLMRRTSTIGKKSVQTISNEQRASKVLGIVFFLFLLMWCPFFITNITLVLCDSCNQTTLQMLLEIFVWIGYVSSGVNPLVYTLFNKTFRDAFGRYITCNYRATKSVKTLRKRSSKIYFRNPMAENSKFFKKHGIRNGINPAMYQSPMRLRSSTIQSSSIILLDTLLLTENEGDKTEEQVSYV
T10 sequence (P23975 whole entry): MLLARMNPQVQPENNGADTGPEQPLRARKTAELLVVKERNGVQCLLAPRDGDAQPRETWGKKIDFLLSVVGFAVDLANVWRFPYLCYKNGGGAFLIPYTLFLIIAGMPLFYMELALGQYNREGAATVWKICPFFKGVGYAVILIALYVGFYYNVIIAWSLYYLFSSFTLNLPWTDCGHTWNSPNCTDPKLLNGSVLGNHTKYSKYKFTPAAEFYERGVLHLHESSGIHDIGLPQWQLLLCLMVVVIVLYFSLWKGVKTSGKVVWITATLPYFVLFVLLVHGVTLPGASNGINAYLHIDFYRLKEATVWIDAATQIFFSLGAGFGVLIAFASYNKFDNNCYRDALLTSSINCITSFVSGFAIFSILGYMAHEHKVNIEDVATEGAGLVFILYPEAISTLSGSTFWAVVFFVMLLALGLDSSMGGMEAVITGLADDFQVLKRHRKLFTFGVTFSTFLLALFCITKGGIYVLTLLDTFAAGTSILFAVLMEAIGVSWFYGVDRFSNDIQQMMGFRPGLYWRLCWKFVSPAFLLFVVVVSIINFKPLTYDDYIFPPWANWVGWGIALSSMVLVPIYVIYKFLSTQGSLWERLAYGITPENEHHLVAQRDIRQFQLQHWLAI
Sequence of 5-HT2A receptor (P28223 whole entry): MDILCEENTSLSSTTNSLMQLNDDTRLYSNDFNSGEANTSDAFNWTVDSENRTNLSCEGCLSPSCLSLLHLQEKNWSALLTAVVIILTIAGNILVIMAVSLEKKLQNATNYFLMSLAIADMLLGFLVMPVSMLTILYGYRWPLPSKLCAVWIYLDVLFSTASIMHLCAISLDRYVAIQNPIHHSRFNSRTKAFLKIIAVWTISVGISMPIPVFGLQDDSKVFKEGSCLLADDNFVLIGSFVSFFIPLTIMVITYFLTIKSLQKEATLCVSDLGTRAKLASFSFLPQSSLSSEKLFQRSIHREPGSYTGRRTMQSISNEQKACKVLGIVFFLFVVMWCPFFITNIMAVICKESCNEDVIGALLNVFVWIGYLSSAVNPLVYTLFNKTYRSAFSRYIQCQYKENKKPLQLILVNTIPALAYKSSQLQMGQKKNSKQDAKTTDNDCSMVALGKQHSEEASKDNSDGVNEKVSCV
T9 sequence (P28565 whole entry): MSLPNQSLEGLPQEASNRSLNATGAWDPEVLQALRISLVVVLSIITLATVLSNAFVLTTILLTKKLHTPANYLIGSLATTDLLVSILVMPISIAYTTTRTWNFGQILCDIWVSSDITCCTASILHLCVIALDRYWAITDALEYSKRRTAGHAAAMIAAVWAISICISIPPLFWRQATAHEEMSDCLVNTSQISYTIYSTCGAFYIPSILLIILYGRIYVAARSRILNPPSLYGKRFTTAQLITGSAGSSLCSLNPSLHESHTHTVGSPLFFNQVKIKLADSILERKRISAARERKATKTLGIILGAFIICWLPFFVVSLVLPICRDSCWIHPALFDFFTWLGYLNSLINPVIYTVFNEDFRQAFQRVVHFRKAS
T1 sequence (P34969 whole entry): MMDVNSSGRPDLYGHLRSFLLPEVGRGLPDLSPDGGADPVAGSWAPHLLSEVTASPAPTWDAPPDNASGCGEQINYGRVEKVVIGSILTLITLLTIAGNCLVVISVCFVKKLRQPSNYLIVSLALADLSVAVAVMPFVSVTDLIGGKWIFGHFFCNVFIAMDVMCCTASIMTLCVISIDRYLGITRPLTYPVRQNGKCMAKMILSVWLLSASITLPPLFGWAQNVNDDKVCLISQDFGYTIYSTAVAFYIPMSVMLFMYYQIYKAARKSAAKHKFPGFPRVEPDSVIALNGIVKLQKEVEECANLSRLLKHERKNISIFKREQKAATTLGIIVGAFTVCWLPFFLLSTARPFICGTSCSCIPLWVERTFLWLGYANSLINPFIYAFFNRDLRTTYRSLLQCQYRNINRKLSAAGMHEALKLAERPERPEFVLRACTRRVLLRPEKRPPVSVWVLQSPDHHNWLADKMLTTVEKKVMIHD
T11 sequence (P48039 whole entry): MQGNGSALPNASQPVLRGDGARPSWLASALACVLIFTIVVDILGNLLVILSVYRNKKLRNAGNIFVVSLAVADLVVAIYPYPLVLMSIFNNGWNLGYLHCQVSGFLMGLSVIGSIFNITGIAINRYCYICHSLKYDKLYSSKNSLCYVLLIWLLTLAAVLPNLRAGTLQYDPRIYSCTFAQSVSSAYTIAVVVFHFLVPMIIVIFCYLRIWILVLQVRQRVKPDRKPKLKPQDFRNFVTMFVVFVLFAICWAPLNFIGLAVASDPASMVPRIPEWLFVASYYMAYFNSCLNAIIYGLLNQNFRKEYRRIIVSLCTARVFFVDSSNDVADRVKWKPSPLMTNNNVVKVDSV
T6 sequence (P28222 whole entry): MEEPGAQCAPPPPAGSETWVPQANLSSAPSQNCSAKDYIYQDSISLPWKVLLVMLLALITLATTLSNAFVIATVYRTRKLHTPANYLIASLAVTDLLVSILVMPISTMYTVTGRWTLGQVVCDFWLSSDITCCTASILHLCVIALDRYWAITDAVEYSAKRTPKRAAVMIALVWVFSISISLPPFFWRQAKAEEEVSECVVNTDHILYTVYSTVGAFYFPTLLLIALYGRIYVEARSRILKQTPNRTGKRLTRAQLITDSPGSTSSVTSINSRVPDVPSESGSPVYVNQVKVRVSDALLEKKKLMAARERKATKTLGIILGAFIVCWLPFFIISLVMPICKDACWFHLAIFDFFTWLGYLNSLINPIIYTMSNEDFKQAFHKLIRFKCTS
T8 sequence (Q01959 whole entry): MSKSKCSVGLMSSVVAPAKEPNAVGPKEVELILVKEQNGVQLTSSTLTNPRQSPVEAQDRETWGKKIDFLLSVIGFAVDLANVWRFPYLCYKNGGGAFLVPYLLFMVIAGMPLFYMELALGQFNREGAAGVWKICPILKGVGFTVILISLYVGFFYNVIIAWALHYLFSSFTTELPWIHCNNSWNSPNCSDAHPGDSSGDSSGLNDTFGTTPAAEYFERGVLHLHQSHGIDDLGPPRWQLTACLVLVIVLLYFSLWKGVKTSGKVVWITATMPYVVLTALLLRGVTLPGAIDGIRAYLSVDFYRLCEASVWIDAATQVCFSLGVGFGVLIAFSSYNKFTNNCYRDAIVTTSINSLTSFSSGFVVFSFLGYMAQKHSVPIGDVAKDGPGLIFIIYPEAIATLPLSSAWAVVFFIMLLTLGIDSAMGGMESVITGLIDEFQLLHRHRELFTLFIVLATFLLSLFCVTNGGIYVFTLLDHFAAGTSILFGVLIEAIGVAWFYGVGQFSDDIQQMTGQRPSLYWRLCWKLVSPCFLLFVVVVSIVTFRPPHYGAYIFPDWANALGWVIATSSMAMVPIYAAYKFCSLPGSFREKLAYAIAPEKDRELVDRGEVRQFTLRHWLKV
T4 sequence (P31645 whole entry): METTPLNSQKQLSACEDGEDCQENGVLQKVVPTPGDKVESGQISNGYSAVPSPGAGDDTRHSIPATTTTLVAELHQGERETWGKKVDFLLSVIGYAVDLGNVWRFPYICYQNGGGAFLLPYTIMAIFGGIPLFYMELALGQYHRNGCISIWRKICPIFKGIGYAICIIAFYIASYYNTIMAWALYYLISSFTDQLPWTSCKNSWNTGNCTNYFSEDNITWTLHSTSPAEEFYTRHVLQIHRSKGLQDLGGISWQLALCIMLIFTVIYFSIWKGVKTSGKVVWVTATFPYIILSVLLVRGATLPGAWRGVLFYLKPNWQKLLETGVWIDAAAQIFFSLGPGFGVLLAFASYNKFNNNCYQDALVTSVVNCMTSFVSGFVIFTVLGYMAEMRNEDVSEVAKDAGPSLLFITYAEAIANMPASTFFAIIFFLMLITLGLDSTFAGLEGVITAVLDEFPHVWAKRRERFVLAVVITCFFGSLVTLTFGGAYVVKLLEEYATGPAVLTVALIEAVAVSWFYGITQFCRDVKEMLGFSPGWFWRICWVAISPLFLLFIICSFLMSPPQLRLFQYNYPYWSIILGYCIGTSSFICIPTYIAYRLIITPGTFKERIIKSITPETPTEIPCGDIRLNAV

Row | Structure (SMILES) | HT7, percent of control-specific binding [1] [%] | D3, percent of control-specific binding [2] [%] | 5-HT1A receptor engagement (change in cAMP levels), in words [3] | HT2B, percent of control-specific binding [5] [%] | Ki [7] [nM] | HT1B, percent of control-specific binding [8] [%] | DAT, percent of control-specific binding [10] [%] | HT1D, percent of control-specific binding [11] [%] | NET, percent of control-specific binding [12] [%] | MT1, percent of control-specific binding [13] [%] | D2, percent of control-specific binding [14] [%] | EC50 [3] [µM] | Ki [4] [µM] | HT2C, percent of control-specific binding [15] [%] | Ki [6] [µM] | inhibition at 10 µM [9] [%] | also measured
1 | COc1cc(CCN)c(OC)cc1Br [2C-B, reference compound] | 88 | 43 | reduction in cAMP levels | 99 | 200 | 77 | 5 | 100 | 13 | 86 | 42 | – | – | – | – | – | EC50 ([3]; reduction of cAMP in +5-HT1A cells stimulated with 4 μM forskolin, 20 min, read-out: 5-HT1A, EC50): 5.95 µM; SERT binding, binding curve in words [4]: bind SERT to varying degrees; Ki ([4]; read-out: SERT, Ki): 11.4 µM; Ki ([6]; read-out: 5-HT2A, Ki, competition with 1 nM [3H]ketanserin, test compound 3 nM to 1 mM): 0.414 µM; α-2A, percent of control-specific binding [9]: 88%
2 | COc1cc2c(cc1CCN1CCCC1)OCO2 [A(XIV)] | 75 | 46 | receptor modulation at evaluated ligand concentrations | 63 | 46.2 | 7 | 0 | 28 | 0 | 7 | 12 | 1.17 | 23.2 | 90 | 11 | 54 | –
3 | COc1cc2c(cc1CCNCCO)OCO2 [A(XXIV)] | 35 | 13 | – | 43 | 993 | 0 | 5 | 29 | 0 | 0 | 7 | 32.3 | 52.2 | 76 | 26 | 11 | –
4 | c1cc(CCN2CCCC2)c2c(c1)OCO2 [A(XXIX)] | 48 | 22 | – | 48 | 13.2 | 3 | 49 | 44 | 2 | 1 | 0 | 0.352 | 10.1 | 87 | 8 | 57 | –
